# Assay results taken from patent publication US20060173067A1, “Small molecules for the treatment of atherosclerosis” (The Regents of the University of California, priority 2004, published 2006).
# Entries after “also recorded” stand apart in the source; their conditions may differ. Where a SMILES comes first, the peptide text is derived from it. [ ]: non-standard residue; d: D form. The star is where a group is joined. Boc = CC(C)(C)OC(=O)*; OtBu = CC(C)(C)O*; tBu = CC(C)(C)*
# Tests used:
# [1] = Interaction of peptide with DMPC in an aqueous environment (dialysis, negative-stain electron micrograph); assay type: physicochemical; settings: for appearance of solution after dialysis (deoxycholate removed): DMPC: peptide 1:10 wt:wt in PBS; for Bilayer dimension of stacked bilayers / Spacing between bilayers in the stack / Vesicular structures, size: DMPC: peptide 1:10 wt:wt, aqueous environment
# Description: FIG. 4 SEQ ID NO:4 forms 7.5 nm particles when mixed with DMPC in an aqueous environment. To 1 mg/ml of DMPC suspension in phosphate buffered saline (PBS) was added 10% deoxycholate until the DMPC was dissolved. SEQ ID NO: 4 or SEQ ID NO:3 were added (DMPC: peptide; 1:10; wt:wt) and the reaction mixture dialyzed. […] The figure is an electron micrograph prepared with negative staining and at 147,420× magnification. The arrows indicate SEQ ID NO: 4 particles measuring 7.5 nm (they appear as small white particles).
# To 1 mg/ml of DMPC suspension in phosphate buffered saline (PBS) was added 10% deoxycholate until the DMPC was dissolved. Peptides, SEQ ID NO:4 or SEQ ID NO:3, were added (DMPC: peptide; 1:10; wt:wt) and the reaction mixture dialyzed.
# [2] = Solubility of peptides in ethyl acetate; assay type: physicochemical; settings: 10 mg/mL added, room temperature 30 minutes, FIG. 3
# Description: To evaluate solubility in ethyl acetate, each peptide was weighed and added to a centrifuge tube and ethyl acetate (HPLC grade; residue after evaporation <0.0001%) was added to give a concentration of 10 mg/mL. The tubes were sealed, vortexed and kept at room temperature for 30 minutes with vortexing every 10 minutes. The tubes were then centrifuged for 5 minutes at 10,000 rpm and the supernatant was removed to a previously weighed tube. The ethyl acetate was evaporated under argon and the tubes weighed to determine the amount of peptide that had been contained in the supernatant. The percent of the originally added peptide that was dissolved in the supernatant is shown on the Y-axis. he data are mean±S.D. Control represents sham treated tubes; SEQ ID NO:3 and SEQ ID NO:4 were both synthesized from all D-amino acids. The sequence Boc-Phe-Arg-Glu-Leu-OtBu (SEQ ID NO:5, SEQ ID NO:250 in copending application U.S. Ser. No. 10/649,378) was synthesized from all L-amino acids.
# [3] = tested on: LDL-induced monocyte chemotactic activity in human artery wall cocultures; assay: Monocyte chemotactic activity in human artery wall cell coculture with HDL of peptide-fed apoE null mice; assay type: in vivo; settings: female apoE null mice, 200 μg/gm chow, 15 weeks, 50 μg/mL mouse HDL, FIG. 13
# Text: Lipoproteins, human artery wall cocultures, and monocytes can be prepared and monocyte chemotactic activity (MCA) determined as previously described (Van Lenten et al. (2002) Circulation, 106: 1127-1132). Induction of MCA by a standard control LDL can be determined in the absence or presence of the subject's HDL. Values in the absence of HDL are typically normalized to 1.0. Values greater than 1.0 after the addition of HDL indicate pro-inflammatory HDL; values less than 1.0 indicate anti-inflammatory HDL.
# (§1) Female apoE null mice at age 8 weeks were given no additions to their diet (Chow) or received 200 μg/gm chow of SEQ ID NO:3 (+254) or 200 μg/gm chow of SEQ ID NO: 4 (+258), both synthesized from all D-amino acids. After 15 weeks the mice were bled and their plasma fractionated by FPLC and their HDL (mHDL) tested in a human artery wall cell coculture. A standard human LDL (at 100 μg/mL of LDL-cholesterol) was added alone (LDL) or not added (no addition) or was added with 50 μg/mL of normal human HDL (hHDL) or 50 μg/mL of mouse HDL (mHDL) to human artery wall cocultures and the resulting monocyte chemotactic activity was determined and plotted on the Y-axis.
# [4] = tested on: apoE null mice; assay: Atherosclerosis in apoE null mice fed peptide in chow for 15 weeks; assay type: in vivo; settings: female apoE null mice, 200 μg/gm chow
# Description: The aortic root (aortic sinus) lesion score was determined in the apoE null mice described in FIG. 13. The number of mice in each group is shown (n=) at the bottom of the figure and a representative section for each group is shown at the top of the figure.
# The percent aortic surface containing atherosclerotic lesions was determined in en face preparations in the apoE null mice described in FIG. 13. The number of mice in each group is shown (n=) at the bottom of the left panel and a representative aorta for mice fed chow alone or chow supplemented with. SEQ ID NO:4 is shown in the right panel.
# as §1
# [5] = tested on: apoE null mice; assay: Atherosclerosis in apoE null mice fed SEQ ID NO:5 in chow for 12 weeks; assay type: in vivo; settings: 200 μg/gm chow, p=0.012, FIG. 16
# [6] = Solubility in aqueous buffer at pH 7.0; assay type: physicochemical; settings: pH 7.0, data not shown
# [7] = Interaction of peptide with DMPC in an aqueous environment (dialysis, negative-stain electron micrograph); assay type: physicochemical; settings: DMPC: peptide 1:10 wt:wt
smiles,measurement,setting,value
"CC(C)(C)OC[C@@H](NC(=O)[C@@H](CCCNC(=N)N)NC(=O)[C@@H](CCC(=O)O)NC(=O)[C@@H](CCCCNC(=O)OC(C)(C)C)NC(=O)OC(C)(C)C)C(=O)OC(C)(C)C [SEQ ID NO:3, Boc-Lys(εBoc)-Glu-Arg-Ser(tBu)-OtBu] (Boc-[dK](Boc)[dE][dR][dS](tBu)-OtBu)",appearance of solution after dialysis (deoxycholate removed),[1],turbid
same,"formation of 7.5 nm particles, stacked lipid-peptide bilayers, 38 nm vesicular structures","[1]; conditions of FIG. 4, data not shown",did not form
same,solubility in ethyl acetate,[2],poorly soluble
same,HDL rendered anti-inflammatory (monocyte chemotactic activity),[3],not
same,"aortic root (aortic sinus) atherosclerosis, lesion score",[4]; FIG. 14,not
same,"aortic atherosclerosis in en face preparations, percent aortic surface containing lesions",[4]; FIG. 15,not
"CC(C)C[C@H](NC(=O)[C@H](CCC(=O)O)NC(=O)[C@H](CCCNC(=N)N)NC(=O)[C@H](Cc1ccccc1)NC(=O)OC(C)(C)C)C(=O)OC(C)(C)C [SEQ ID NO:5, Boc-Phe-Arg-Glu-Leu-OtBu] (Boc-FREL-OtBu)",solubility in ethyl acetate,[2],very soluble
same,% Aortic Surface Area with Lesions in en face preparations,[5],significantly decreases atherosclerosis
"CC(C)(C)OC[C@@H](NC(=O)[C@@H](CCC(=O)O)NC(=O)[C@@H](CCCNC(=N)N)NC(=O)[C@@H](CCCCNC(=O)OC(C)(C)C)NC(=O)OC(C)(C)C)C(=O)OC(C)(C)C [SEQ ID NO:4, Boc-Lys(εBoc)-Arg-Glu-Ser(tBu)-OtBu] (Boc-[dK](Boc)[dR][dE][dS](tBu)-OtBu)",solubility in aqueous buffer at pH 7.0,[6],soluble
same,"diameter of particles formed with DMPC (Size ""Nascent HDL Particles"")",[7]; listed as SEQ ID NO: 4,approximately 7.5 nm
same,"diameter of particles formed with DMPC (Size ""Nascent HDL Particles"")",[7]; listed as SEQ ID NO: 6,7.5 nm
same,appearance of solution after dialysis (deoxycholate removed),[1],remained clear
same,Bilayer dimension of stacked bilayers,[1],3.4 to 4.1 nm
same,Spacing between bilayers in the stack,[1],approximately 2 nm
same,"Vesicular structures, size",[1],approximately 38 nm
same,"Vesicular structures, size",[1]; listed as SEQ ID NO: 4,approximately 38 nm
same,Bilayer dimension of stacked bilayers,[1]; listed as SEQ ID NO: 6,3.4-4.1 nm
same,Spacing between bilayers in the stack,[1]; listed as SEQ ID NO: 6,2.0 nm
same,"Vesicular structures, size",[1]; listed as SEQ ID NO: 6,38 nm
same,solubility in ethyl acetate,[2],very soluble; also recorded: highly soluble
same,HDL rendered anti-inflammatory (monocyte chemotactic activity),[3],renders apoE null HDL anti-inflammatory
same,HDL rendered anti-inflammatory (monocyte chemotactic activity),[3]; listed as SEQ ID NO: 4,rendered anti-inflammatory
same,"aortic root (aortic sinus) atherosclerosis, lesion score",[4]; FIG. 14,significantly decreases
same,"aortic root (aortic sinus) atherosclerosis, lesion score","[4]; FIG. 14, listed as SEQ ID NO: 4",significantly reduced
same,"aortic atherosclerosis in en face preparations, percent aortic surface containing lesions",[4]; FIG. 15,significantly decreases
same,"aortic atherosclerosis in en face preparations, percent aortic surface containing lesions","[4]; FIG. 15, listed as SEQ ID NO: 4",significantly decreased
